We go through 3 compounds from patent publication US7208520B2, “Crystals of hydroxynorephedrine derivative” (Kissei Pharmaceutical Co., Ltd., priority 2001, dated 2007).

Each structure is given as a SMILES string.

The nature of the series: Stability test: storage at 60° C., residual percentage by HPLC and changes in appearance. Type of series: physicochemical. The conditions noted are these: for Residual percentage: determined by HPLC. How it is done: Stability test was carried out under a condition of storage at 60° C. for crystalline form A obtained in Example 2, crystalline form B obtained in Example 3 and the amorphous form of compound (II) obtained in Reference Example 1. The residual percentage of test substances was determined by HPLC, and the changes in appearance were observed.

[1] abbreviates: storage at 60° C., 7 days, hydrochloride.

On to `CCOC(=O)COc1cc(C)c(CCN[C@@H](C)[C@H](O)c2ccc(O)cc2)cc1C.Cl` [Example 2, Crystalline form A of ethyl (−)-2-[4-[2-[[(1S,2R)-2-hydroxy-2-(4-hydroxyphenyl)-1-methyethyl]amino]ethyl]-2,5-dimethylphenoxy]acetate hydrochloride], for which the Changes in appearance result (storage at 60° C.) was “no changes in appearance”. Besides, the Appearance entry was “white” (storage at 60° C., 7 days) and “white” (storage period: Initial). Moreover, the Residual percentage under setting [1] worked out at 100 and the Residual percentage (storage period: Initial) amounted to 100.
As to `CCOC(=O)COc1cc(C)c(CCN[C@@H](C)[C@H](O)c2ccc(O)cc2)cc1C.Cl` [Example 3, Crystalline form B of ethyl (−)-2-[4-[2-[[(1S,2R)-2-hydroxy-2-(4-hydroxyphenyl)-1-methyethyl]amino]ethyl]-2,5-dimethylphenoxy]acetate hydrochloride], the Changes in appearance entry (storage at 60° C.) is listed as “no changes in appearance”. For the same compound, the Appearance result (storage at 60° C., 7 days) is “white” and the Appearance entry (storage period: Initial) is “white”. The Residual percentage runs as follows: under setting [1], 99.9; (storage period: Initial) 100.
For the compound `CCOC(=O)COc1cc(C)c(CCN[C@@H](C)[C@H](O)c2ccc(O)cc2)cc1C` [compound 1, Ethyl (−)-2-[4-[2-[[(1S,2R)-2-hydroxy-2-(4-hydroxyphenyl)-1-methyethyl]amino]ethyl]-2,5-dimethylphenoxy]acetate, reference compound], where the note is “storage at 60° C., 7 days”, the Appearance entry is listed as “tannish” and the Residual percentage is on record as 40.0. Further, for the setting “storage period: Initial”, the Appearance result is on record as “Color-” and the Residual percentage came to 100.
